Laboratory results from patent US20230265151A1, “GIP/GLP1 CO-AGONIST COMPOUNDS” (priority 2020, published 2023).
Like-named read-outs stand apart in the source and are kept apart here.

How the values were obtained:
Assay type in all cases: cell-based
hGCGR = target: T1, hGCGR (Homo sapiens, UniProt P47871); assay: Functional cAMP formation (HTRF) in HEK-293 clonal cells expressing hGCGR, 0.1% bovine casein, without or with 1.0% human serum albumin; settings: geometric mean, read-out: hGCGR EC50, nM (SEM, n)
T1 construct: expressed in transfected cells
T1 sequence (P47871 26-477): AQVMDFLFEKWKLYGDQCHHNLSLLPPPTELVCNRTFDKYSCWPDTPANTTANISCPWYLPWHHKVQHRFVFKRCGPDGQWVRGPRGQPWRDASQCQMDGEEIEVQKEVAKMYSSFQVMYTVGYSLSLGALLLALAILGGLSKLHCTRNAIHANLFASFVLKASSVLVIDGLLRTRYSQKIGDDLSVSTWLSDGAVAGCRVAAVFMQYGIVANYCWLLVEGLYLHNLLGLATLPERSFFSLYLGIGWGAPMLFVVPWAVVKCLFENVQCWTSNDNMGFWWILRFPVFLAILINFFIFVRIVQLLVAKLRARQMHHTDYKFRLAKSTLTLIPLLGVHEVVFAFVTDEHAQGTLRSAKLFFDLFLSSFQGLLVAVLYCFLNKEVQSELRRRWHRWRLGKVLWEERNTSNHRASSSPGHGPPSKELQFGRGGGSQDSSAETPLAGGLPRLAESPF
Summary of the method: (§1)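 Cells were stimulated with peptide for 30 min at 37° C, then intracellular cAMP was measured by competitive HTRF (665/620 nm ratio) and converted to nM using a cAMP standard curve. Relative EC50 and Emax came from four-parameter logistic fits of percent maximal response against peptide concentration.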

hGLP-1R = hGLP-1R (Homo sapiens, UniProt P43220); assay: Functional cAMP formation (HTRF) in HEK-293 clonal cells expressing hGLP-1R, 0.1% bovine casein, without or with 1.0% human serum albumin; design: expressed in transfected cells; settings: for Emax: 37° C., read-out: hGLP-1R Emax, % ± SEM; for EC50: cAMP, incubated at 37° C., 0.1% bovine casein (no human serum albumin), geometric mean, read-out: hGLP-1R EC50, nM (SEM, n)
Chain of hGLP-1R (P43220 24-463): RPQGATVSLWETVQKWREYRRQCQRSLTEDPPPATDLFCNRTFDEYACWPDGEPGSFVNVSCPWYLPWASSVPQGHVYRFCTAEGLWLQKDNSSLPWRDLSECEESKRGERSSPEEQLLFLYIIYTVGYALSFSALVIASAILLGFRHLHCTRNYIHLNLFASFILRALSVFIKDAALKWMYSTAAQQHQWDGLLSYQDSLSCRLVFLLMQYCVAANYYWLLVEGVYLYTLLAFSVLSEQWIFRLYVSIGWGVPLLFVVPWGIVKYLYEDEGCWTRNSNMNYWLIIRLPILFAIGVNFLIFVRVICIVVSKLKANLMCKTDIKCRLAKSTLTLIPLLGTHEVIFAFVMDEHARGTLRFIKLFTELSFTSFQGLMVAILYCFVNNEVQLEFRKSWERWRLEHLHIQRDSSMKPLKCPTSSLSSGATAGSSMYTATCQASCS
Summary of the method: as §1

hGIPR = target: T2, hGIPR (Homo sapiens, UniProt P48546); assay: Functional cAMP formation (HTRF) in HEK-293 clonal cells expressing hGIPR, 0.1% bovine casein, without or with 1.0% human serum albumin; settings: for Emax: read-out: hGIPR Emax, % ± SEM; for EC50: geometric mean, read-out: hGIPR EC50, nM (SEM, n)
T2 construct: expressed in transfected cells
T2 sequence (P48546 22-466): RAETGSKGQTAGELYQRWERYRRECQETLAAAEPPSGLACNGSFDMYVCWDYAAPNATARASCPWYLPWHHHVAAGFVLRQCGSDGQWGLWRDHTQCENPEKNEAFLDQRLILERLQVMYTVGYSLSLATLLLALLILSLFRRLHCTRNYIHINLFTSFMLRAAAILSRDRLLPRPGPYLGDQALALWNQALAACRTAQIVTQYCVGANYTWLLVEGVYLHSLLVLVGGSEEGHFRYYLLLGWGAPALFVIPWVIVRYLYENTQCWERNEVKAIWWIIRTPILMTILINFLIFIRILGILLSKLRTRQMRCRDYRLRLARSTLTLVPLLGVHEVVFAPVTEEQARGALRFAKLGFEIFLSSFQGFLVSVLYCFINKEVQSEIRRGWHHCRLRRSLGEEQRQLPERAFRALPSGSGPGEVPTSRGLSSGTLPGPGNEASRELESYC
Summary of the method: as §1

[1] = 0.1% bovine casein and 1.0% human serum albumin, 37° C.
[2] = cAMP, incubated at 37° C., 0.1% bovine casein (no human serum albumin)
[3] = HEK293, 0.1% bovine casein and 1.0% human serum albumin, percent of maximal response to GLP-1(7-36)NH2
[4] = HEK293, 0.1% bovine casein and 1.0% human serum albumin, 37° C., percent of maximal response to GIP(1-42)NH2
[5] = HEK293, percent of maximal response to GIP(1-42)NH2, 37° C., 0.1% bovine casein, arithmetic mean
[6] = HEK293, percent of maximal response to GLP-1(7-36)NH2, 0.1% bovine casein, arithmetic mean

Compound | EC50 (hGCGR; [1]) [nM] | EC50 (hGCGR; [2]) [nM] | Emax (hGLP-1R; [3]) [%] | Emax (hGIPR; [4]) [%] | Emax (hGIPR; [5]) [%] | Emax (hGLP-1R; [6]) [%] | EC50 (hGLP-1R) [nM] | EC50 (hGIPR; [2]) [nM] | EC50 (hGIPR; [1]) [nM]
CC[C@H](C)[C@H](NC(=O)[C@H](CC(C)C)NC(=O)[C@](C)(Cc1ccc(O)cc1)NC(=O)[C@@H](CCC(=O)O)NC(=O)[C@@H](NC(=O)[C@](C)(Cc1ccccc1)NC(=O)[C@H](CCC(=O)O)NC(=O)C(C)(C)NC(=O)[C@H](CCC(N)=O)NC(=O)[C@H](C)NC(=O)[C@H](CCCCNC(=O)COCCOCCNC(=O)COCCOCCNC(=O)CC[C@H](NC(=O)CCCCCCCCCCCCC(=O)O)C(=O)O)NC(=O)[C@H](CCCN)NC(=O)[C@H](CC(=O)O)NC(=O)[C@H](CC(C)C)NC(=O)[C@](C)(CC(C)C)NC(=O)[C@@H](NC(=O)C(C)(C)NC(=O)[C@@H](NC(=O)[C@H](CC(=O)O)NC(=O)[C@H](CO)NC(=O)[C@@H](NC(=O)[C@](C)(Cc1ccccc1F)NC(=O)[C@@H](NC(=O)CNC(=O)[C@H](CCC(=O)O)NC(=O)C(C)(C)NC(=O)[C@@H](N)Cc1ccc(O)cc1)[C@@H](C)O)[C@@H](C)O)C(C)C)[C@@H](C)CC)[C@@H](C)CC)C(=O)N[C@@H](CCC(=O)O)C(=O)NCC(=O)NCC(=O)N[C@@H](CCCCNC(=O)COCCOCCNC(=O)COCCOCCNC(=O)CC[C@H](NC(=O)CCCCCCCCCCCCC(=O)O)C(=O)O)C(=O)N[C@@H](CO)C(=O)N[C@@H](CO)C(=O)NCC(=O)N[C@@H](C)C(=O)N1CCC[C@H]1C(=O)N1CCC[C@H]1C(=O)N1CCC[C@H]1C(=O)N[C@@H](CO)C(N)=O [Example 93] | > 9950 | > 9950 | 90.2 | 92 | 99.4 ± 6.93 | – | – | – | –
CC[C@H](C)[C@H](NC(=O)[C@H](CC(C)C)NC(=O)[C@](C)(Cc1ccc(O)cc1)NC(=O)[C@@H](CCC(=O)O)NC(=O)[C@@H](NC(=O)[C@](C)(Cc1ccccc1)NC(=O)[C@H](CCC(=O)O)NC(=O)C(C)(C)NC(=O)[C@H](CCC(N)=O)NC(=O)[C@H](C)NC(=O)[C@H](CCCCNC(=O)COCCOCCNC(=O)COCCOCCNC(=O)CC[C@H](NC(=O)CCCCCCCCCCCCC(=O)O)C(=O)O)NC(=O)[C@H](CCCN)NC(=O)[C@H](CC(=O)O)NC(=O)[C@H](CC(C)C)NC(=O)[C@](C)(CC(C)C)NC(=O)[C@@H](NC(=O)[C@H](CO)NC(=O)C1(NC(=O)[C@H](CC(=O)O)NC(=O)[C@H](CO)NC(=O)[C@@H](NC(=O)[C@](C)(Cc2ccccc2F)NC(=O)[C@@H](NC(=O)CNC(=O)[C@H](CCC(=O)O)NC(=O)C(C)(C)NC(=O)[C@@H](N)Cc2ccc(O)cc2)[C@@H](C)O)[C@@H](C)O)CCCC1)[C@@H](C)CC)[C@@H](C)CC)C(=O)N[C@@H](CCC(=O)O)C(=O)NCC(=O)NCC(=O)N[C@@H](CCCCNC(=O)COCCOCCNC(=O)COCCOCCNC(=O)CC[C@H](NC(=O)CCCCCCCCCCCCC(=O)O)C(=O)O)C(=O)N[C@@H](CO)C(=O)N[C@@H](CO)C(=O)NCC(=O)N[C@@H](C)C(=O)N1CCC[C@H]1C(=O)N1CCC[C@H]1C(=O)N1CCC[C@H]1C(=O)N[C@@H](CO)C(N)=O [Example 94] | > 9950 | > 9950 | 113 | 97.1 | 91 | 97.4 | 2.1 | 0.0132 | –
CC[C@H](C)[C@H](NC(=O)[C@H](CC(C)C)NC(=O)[C@](C)(Cc1ccc(O)cc1)NC(=O)[C@@H](CCC(=O)O)NC(=O)[C@@H](NC(=O)[C@H](Cc1ccccc1)NC(=O)[C@H](CCC(=O)O)NC(=O)C(C)(C)NC(=O)[C@H](CCC(N)=O)NC(=O)[C@H](C)NC(=O)[C@H](CCCCNC(=O)COCCOCCNC(=O)COCCOCCNC(=O)CC[C@H](NC(=O)CCCCCCCCCCCCC(=O)O)C(=O)O)NC(=O)[C@H](CCCN)NC(=O)[C@H](CC(=O)O)NC(=O)[C@H](CC(C)C)NC(=O)[C@](C)(CC(C)C)NC(=O)[C@@H](NC(=O)[C@H](CO)NC(=O)C1(NC(=O)[C@H](CC(=O)O)NC(=O)[C@H](CO)NC(=O)[C@@H](NC(=O)[C@](C)(Cc2ccccc2F)NC(=O)[C@@H](NC(=O)CNC(=O)[C@H](CCC(=O)O)NC(=O)C(C)(C)NC(=O)[C@@H](N)Cc2ccc(O)cc2)[C@@H](C)O)[C@@H](C)O)CCC1)[C@@H](C)CC)[C@@H](C)CC)C(=O)N[C@@H](CCC(=O)O)C(=O)NCC(=O)NCC(=O)N[C@@H](CCCCNC(=O)COCCOCCNC(=O)COCCOCCNC(=O)CC[C@H](NC(=O)CCCCCCCCCCCCC(=O)O)C(=O)O)C(=O)N[C@@H](CO)C(=O)N[C@@H](CO)C(=O)NCC(=O)N[C@@H](C)C(=O)N1CCC[C@H]1C(=O)N1CCC[C@H]1C(=O)N1CCC[C@H]1C(=O)N[C@@H](CO)C(N)=O [Example 95] | > 9950 | > 9950 | 84 | 86.9 | 97.3 | 86.9 | – | – | 4.68
CC[C@H](C)[C@H](NC(=O)[C@H](CC(C)C)NC(=O)[C@](C)(Cc1ccc(O)cc1)NC(=O)[C@@H](CCC(=O)O)NC(=O)[C@@H](NC(=O)[C@H](Cc1ccccc1)NC(=O)[C@H](CCC(=O)O)NC(=O)C(C)(C)NC(=O)[C@H](CCC(N)=O)NC(=O)[C@H](C)NC(=O)[C@H](CCCCNC(=O)COCCOCCNC(=O)COCCOCCNC(=O)CC[C@H](NC(=O)CCCCCCCCCCCCC(=O)O)C(=O)O)NC(=O)[C@H](CCCN)NC(=O)[C@H](CC(=O)O)NC(=O)[C@H](CC(C)C)NC(=O)[C@](C)(CC(C)C)NC(=O)[C@@H](NC(=O)[C@H](CO)NC(=O)[C@H](CC1CCCCC1)NC(=O)[C@H](CC(=O)O)NC(=O)[C@H](CO)NC(=O)[C@@H](NC(=O)[C@](C)(Cc1ccccc1F)NC(=O)[C@@H](NC(=O)CNC(=O)[C@H](CCC(=O)O)NC(=O)C(C)(C)NC(=O)[C@@H](N)Cc1ccc(O)cc1)[C@@H](C)O)[C@@H](C)O)[C@@H](C)CC)[C@@H](C)CC)C(=O)N[C@@H](CCC(=O)O)C(=O)NCC(=O)NCC(=O)N[C@@H](CCCCNC(=O)COCCOCCNC(=O)COCCOCCNC(=O)CC[C@H](NC(=O)CCCCCCCCCCCCC(=O)O)C(=O)O)C(=O)N[C@@H](CO)C(=O)N[C@@H](CO)C(=O)NCC(=O)N[C@@H](C)C(=O)N1CCC[C@H]1C(=O)N1CCC[C@H]1C(=O)N1CCC[C@H]1C(=O)N[C@@H](CO)C(N)=O [Example 98] | > 9950 | > 9950 | 97.5 | 95 | 97.7 ± 2.54 | – | 0.227 | 0.0148 | –
CC[C@H](C)[C@H](NC(=O)[C@H](CC(C)C)NC(=O)[C@](C)(Cc1ccc(O)cc1)NC(=O)[C@@H](CCC(=O)O)NC(=O)[C@@H](NC(=O)[C@H](Cc1ccc2ccccc2c1)NC(=O)[C@H](CCC(=O)O)NC(=O)C(C)(C)NC(=O)[C@H](CCC(N)=O)NC(=O)[C@H](C)NC(=O)[C@H](CCCCNC(=O)COCCOCCNC(=O)COCCOCCNC(=O)CC[C@H](NC(=O)CCCCCCCCCCCCC(=O)O)C(=O)O)NC(=O)[C@H](CCCN)NC(=O)[C@H](CC(=O)O)NC(=O)[C@H](CC(C)C)NC(=O)[C@](C)(CC(C)C)NC(=O)[C@@H](NC(=O)[C@H](CO)NC(=O)[C@H](Cc1ccncc1)NC(=O)[C@H](CC(=O)O)NC(=O)[C@H](CO)NC(=O)[C@@H](NC(=O)[C@](C)(Cc1ccccc1F)NC(=O)[C@@H](NC(=O)CNC(=O)[C@H](CCC(=O)O)NC(=O)C(C)(C)NC(=O)[C@@H](N)Cc1ccc(O)cc1)[C@@H](C)O)[C@@H](C)O)[C@@H](C)CC)[C@@H](C)CC)C(=O)N[C@@H](CCC(=O)O)C(=O)NCC(=O)NCC(=O)N[C@@H](CCCCNC(=O)COCCOCCNC(=O)COCCOCCNC(=O)CC[C@H](NC(=O)CCCCCCCCCCCCC(=O)O)C(=O)O)C(=O)N[C@@H](CO)C(=O)N[C@@H](CO)C(=O)NCC(=O)N[C@@H](C)C(=O)N1CCC[C@H]1C(=O)N1CCC[C@H]1C(=O)N1CCC[C@H]1C(=O)N[C@@H](CO)C(N)=O [Example 99] | > 9950 | > 9950 | 81.1 | – | 93.4 ± 1.02 | – | – | – | –
